Consider 37 molecules from patent publication US6875743B1, “Cell adhesion inhibitors” (Biogen, Inc., priority 1996, dated 2005).

Numbered stars: 1 amine (or outer) side, 2 acyl side, 3 side chain; on linkers, the order of the positions; unused ones are H or OH. Square brackets hold non-standard residues; d marks the D form. Peptide text beside a SMILES is read from it. * marks the point of attachment. Fmoc = O=C(OCC1c2ccccc2-c2ccccc21)*; X1 = O=C(Cc1ccc(N[*:1])cc1)[*:2]; NH(2-Me-phenyl) = Cc1ccccc1N*; Tic = O=C(O)[CH]1Cc2ccccc2CN1; Nle = CCCC[CH](N)C(=O)O; PhAc = O=C(Cc1ccccc1)*; CO = O=C([*:1])[*:2]; NHPh = c1ccc(N*)cc1; Bn = c1ccc(C*)cc1

The target in this experiment is T1, VLA4 (Homo sapiens, UniProt P05556+P13612).
T1 construct: endogenous in cells; host or cells: Ramos cells
Description: Inhibition of VLA4-dependent adhesion to BSA-CS1. It is filed as cell-based. The conditions noted are these: binding of BCECF-labelled Ramos cells to BSA-CS1 coated wells, 2 mM MnCl2; read-out: IC50. From the text: For example, the cell adhesion inhibitory activity of these compounds may be measured by determining the concentration of inhibitor required to block the binding of VLA-4-expressing cells to fibronectin- or CS1-coated plates. In this assay microtiter wells are coated with either fibronectin (containing the CS-1 sequence) or CS-1. If CS-1 is used, it must be conjugated to a carrier protein, such as bovine serum albumin, in order to bind to the wells. Once the wells are coated, varying concentrations of the test compound are then added together with appropriately labelled, VLA-4-expressing cells. Alternatively, the test compound may be added first and allowed to incubate with the coated wells prior to the addition of the cells. The cells are allowed to incubate in the wells for at least 30 minutes. Following incubation, the wells are emptied and washed. Inhibition of binding is measured by quantitating the fluorescence or radioactivity bound to the plate for each of the various concentrations of test compound, as well as for controls containing no test compound.
VLA-4-expressing cells that may be utilized in this assay include Ramos cells, Jurkat cells, A375 melanoma cells, as well as human peripheral blood lymophocytes (PBLs). The cells used in this assay may be fluorescently or radioactively labelled.
This assay was used to assess the potency of VLA4-directed inhibitory compounds of this invention.
We dissolved BSA-SMCC (Pierce Chemical, Rockford, Ill.; Catalog #77115) in H2O at a concentration of 10 mg/mL. [SEQ ID NO:4]: […](“Cys-Tyr-CS1 peptide”), which we synthesized by conventional solid phase chemistry and purified by HPLC, was dissolved in 10 mM HEPES pH 5, 50 mM NaCl and 0.1 mM EDTA also at a concentration of 10 mg/mL. We then mixed 500 μL of BSA-SMCC, 250 μL of Cys-Tyr-CS1 peptide and 75 μL of 1 mM HEPES pH 7.5 and allowed the conjugation reaction to proceed for 30 minutes. We stopped the reaction by adding 1 μL of beta-mercaptoethanol. Samples were analyzed for cross-linking by SDS-PAGE.
We coated the wells of a Linbro titertek polystyrene 96-well flat bottom plate (Flow Laboratories, Maclean, Va.; catalog #76-231-05) with 100 μL of the above-described BSA-CS1 solution diluted to 1 μg/mL in 0.05 M NaHCO3 (15 mM NaHCO3, 35 mM Na2CO3) pH 9.2. Some wells were not coated with CS1 in order to assess non-specific cell binding (NSB). The plate was then incubated overnight at 4° C.
Following this incubation, the contents of the wells were removed by inverting and blotting the plate. All of the wells were then blocked with 100 μL of 1% BSA in PBS, 0.02% NaN3, for a minimum of one hour at room temperature.
Ramos cells are grown, maintained and labelled in RPMI 1640 culture medium containing 1% BSA. Just prior to running the assay, we added 2′,7′-bis-(2-carboxyethyl)-5 (and -6) carboxyfluorescein acetoxymethyl ester (“BCECF-AM”; Molecular Probes Inc., Eugene, Oreg.; catalog #B-1150) to a final concentration of 2 μM to a culture of Ramos cells (4×10^6 cells/mL). We incubated the cells for 20 minutes at 37° C.
Following labelling, the cells were washed twice in assay buffer (24 mM TRIS, 137 mM NaCl, 2.7 mM KCl, pH 7.4, containing 0.1% BSA and 2 mM glucose) to remove any cations originating from the culture medium. The cells were then resuspended in assay buffer to 4×10^6 cells/mL and 2 mM MnCl2 was added to upregulate VLA4 on the surface of the cells.
Immediately prior to running the assay, we removed the BSA blocking solution from the 96-well plates and washed the wells with 100 μL of assay buffer. We then added to each well 25 μL of test cell adhesion inhibitory compound at 2× the final concentration and 25 μL of the labelled Ramos cells. […] Each concentration of compound was tested in triplicate. The compound and cells are allowed to incubate for 30 minutes at room temperature.

T1 sequence (P13612 34-1032): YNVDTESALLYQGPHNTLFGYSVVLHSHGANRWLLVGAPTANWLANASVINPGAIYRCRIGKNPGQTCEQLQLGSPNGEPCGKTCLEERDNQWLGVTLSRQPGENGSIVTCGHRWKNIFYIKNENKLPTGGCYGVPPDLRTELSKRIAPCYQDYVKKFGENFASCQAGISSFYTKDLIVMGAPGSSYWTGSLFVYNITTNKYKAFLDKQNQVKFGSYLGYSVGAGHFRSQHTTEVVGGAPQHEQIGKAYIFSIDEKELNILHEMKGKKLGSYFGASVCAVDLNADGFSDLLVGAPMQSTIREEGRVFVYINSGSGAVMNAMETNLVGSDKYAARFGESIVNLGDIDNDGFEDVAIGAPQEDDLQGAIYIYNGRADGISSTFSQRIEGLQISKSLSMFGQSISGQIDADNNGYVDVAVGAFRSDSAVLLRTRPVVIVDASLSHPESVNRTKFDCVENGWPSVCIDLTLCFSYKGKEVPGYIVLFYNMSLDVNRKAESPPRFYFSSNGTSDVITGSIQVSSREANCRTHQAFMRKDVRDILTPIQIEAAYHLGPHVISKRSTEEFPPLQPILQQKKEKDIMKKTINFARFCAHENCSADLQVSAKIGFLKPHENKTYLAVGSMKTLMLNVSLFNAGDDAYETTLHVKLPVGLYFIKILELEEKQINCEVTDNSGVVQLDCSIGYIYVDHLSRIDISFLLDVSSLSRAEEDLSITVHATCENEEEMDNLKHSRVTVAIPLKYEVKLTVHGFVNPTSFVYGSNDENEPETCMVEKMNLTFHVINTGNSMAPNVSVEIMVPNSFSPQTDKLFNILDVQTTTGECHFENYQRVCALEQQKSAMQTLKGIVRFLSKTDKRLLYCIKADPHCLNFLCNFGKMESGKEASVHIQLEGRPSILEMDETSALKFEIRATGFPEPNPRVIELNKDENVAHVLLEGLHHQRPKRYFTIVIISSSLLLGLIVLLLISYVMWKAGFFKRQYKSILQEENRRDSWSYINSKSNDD
T1 sequence (P05556 21-798): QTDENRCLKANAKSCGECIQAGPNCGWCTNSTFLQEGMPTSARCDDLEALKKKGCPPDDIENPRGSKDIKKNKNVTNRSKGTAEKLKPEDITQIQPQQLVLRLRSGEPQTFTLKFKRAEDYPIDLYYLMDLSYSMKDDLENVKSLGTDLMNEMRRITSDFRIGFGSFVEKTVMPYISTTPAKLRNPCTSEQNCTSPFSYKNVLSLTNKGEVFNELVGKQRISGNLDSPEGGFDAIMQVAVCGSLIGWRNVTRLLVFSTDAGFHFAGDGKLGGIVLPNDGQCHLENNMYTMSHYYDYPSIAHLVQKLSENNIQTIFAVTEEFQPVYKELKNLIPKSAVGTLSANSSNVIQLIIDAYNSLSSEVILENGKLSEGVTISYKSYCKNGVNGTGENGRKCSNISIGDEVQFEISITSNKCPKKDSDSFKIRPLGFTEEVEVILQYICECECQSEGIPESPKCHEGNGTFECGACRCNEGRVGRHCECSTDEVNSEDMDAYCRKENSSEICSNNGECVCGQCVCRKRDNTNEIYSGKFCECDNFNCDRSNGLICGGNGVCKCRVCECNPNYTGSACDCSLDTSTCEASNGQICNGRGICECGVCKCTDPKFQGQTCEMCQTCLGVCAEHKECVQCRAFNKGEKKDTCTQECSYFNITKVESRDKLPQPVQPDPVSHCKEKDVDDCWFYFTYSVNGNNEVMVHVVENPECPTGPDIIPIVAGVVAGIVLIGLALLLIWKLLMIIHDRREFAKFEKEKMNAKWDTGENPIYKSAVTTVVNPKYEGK

As usually defined, the IC50 is the midpoint of a concentration-inhibition curve. As to `CSCC[C@H](NC(=O)Cc1ccc(NC(=O)Nc2ccccc2C)cc1)C(=O)N[C@@H](CC(=O)O)C(=O)N[C@H](C(N)=O)C(C)C` [Compound 221], the IC50 is under 50 nM.

For `Cc1ccccc1NC(=O)Nc1ccc(CC(=O)N[C@@H](CC(C)C)C(=O)N2CCC[C@H]2C(=O)N[C@H](C(=O)N[C@@H](CC(=O)O)C(=O)O)C(C)C)cc1` [Compound 341] ({NH(2-Me-phenyl)-CO}-[X1]LPVD-OH), the IC50 is over 10000 nM.

In the case of `Cc1ccccc1NC(=O)Nc1ccc(CC(=O)N[C@H](C(=O)N[C@@H](CC(=O)O)C(=O)N[C@H](CO)C(N)=O)[C@@H](C)O)cc1` [Compound 262], the IC50 was under 50 nM.

`CCCc1ccc(C(=O)N[C@@H](CC(C)C)C(=O)N[C@@H](CC(=O)O)C(=O)N[C@H](C(=O)O)C(C)C)cc1` [Compound 374]: the IC50 is over 10000 nM.

As for `CSCC[C@H](NC(=O)Cc1ccc(NC(=O)Nc2ccccc2C)cc1)C(=O)N[C@@H](CC(=O)O)C(=O)N[C@@H](CC(=O)O)C(N)=O` [Compound 219], the 50% inhibitory concentration (IC50) was under 50 nM.

Take `COC(=O)[C@@H](CC(C)C)NC(=O)[C@H](CC(=O)O)NC(=O)[C@@H]1CCCN1C(=O)Cc1ccc(NC(=O)Nc2ccccc2C)cc1` [Compound 410]: the IC50 lay within 50 to 10000 nM.

On to `CC(C)C[C@H](NC(=O)OCC1c2ccccc2-c2ccccc21)C(=O)N[C@@H](CC(=O)O)C(=O)N[C@H](C(=O)O)C(C)C` [Compound 366] (Fmoc-Leu-Asp-Val-OH), for which the IC50 was over 10000 nM.

Turning to `COC(=O)C1CCCN1C(=O)C(NC(=O)C(CC(=O)O)NC(=O)C(CC(C)C)NC(=O)Cc1ccccc1)C(C)C` (stereo not shown) [Compound 35], the IC50 is 50 to 10000 nM.

Consider `CNC(=O)[C@@H](CC(C)C)NC(=O)[C@H](CCC(=O)O)NC(=O)[C@@H]1CCCN1C(=O)Cc1ccc(NC(=O)Nc2ccccc2C)cc1` [Compound 414], for which the IC50 lay within 50 to 10000 nM.

Take `Cc1ccccc1NC(=O)Nc1ccc(CC(=O)N2CCC[C@H]2C(=O)N[C@@H](CC(=O)O)C(=O)N[C@@H](CC(C)C)C(N)=O)cc1` [Compound 242]: the IC50 was under 50 nM.

As to `Cc1ccccc1NC(=O)Nc1ccc(CC(=O)N[C@@H](CO)C(=O)N[C@@H](CC(=O)O)C(=O)N[C@@H](CCC(=O)O)C(N)=O)cc1` [Compound 279], the IC50 was under 50 nM.

With `Cc1ccccc1NC(=O)Nc1ccc(CC(=O)N[C@H](CC(C)C)C(=O)N[C@@H](CC(=O)O)C(=O)N[C@@H](CC(=O)O)C(N)=O)cc1` [Compound 286], the IC50 is under 50 nM.

In the case of `Cc1ccccc1NC(=O)Nc1ccc(CC(=O)N[C@@H](CCC(=O)O)C(=O)N[C@@H](CC(=O)O)C(=O)N[C@H](CC(N)=O)C(N)=O)cc1` [Compound 270], the IC50 was under 50 nM.

For `CC(C)C[C@H](NC(=O)Cc1ccc(NC(=O)Nc2ccccc2)cc1)C(=O)N[C@@H](CC(=O)O)C(=O)N[C@H](C(=O)N1CCC[C@H]1C(N)=O)C(C)C` [Compound 208] ({NHPh-CO}-[X1]LDVP-NH2), the IC50 was under 50 nM.

Turning to `Cc1ccccc1NC(=O)Nc1ccc(CC(=O)N[C@H](C(=O)N[C@@H](CC(=O)O)C(=O)N[C@H](C(N)=O)C(C)C)[C@@H](C)O)cc1` [Compound 254], the IC50 was under 50 nM.

On to `CSCC[C@H](NC(=O)Cc1ccc(NC(=O)Nc2ccccc2C)cc1)C(=O)N[C@@H](CC(=O)O)C(=O)N[C@@H](CCC(=O)O)C(N)=O` [Compound 223], for which the IC50 was under 50 nM.

Turning to `CSCC[C@H](NC(=O)[C@H](CC(=O)O)NC(=O)[C@H](CCC(=O)O)NC(=O)Cc1ccc(NC(=O)Nc2ccccc2C)cc1)C(N)=O` [Compound 269], the IC50 is under 50 nM.

In the case of `CC(C)CC(NC(=O)CCCCc1ccccc1)C(=O)NC(CC(=O)O)C(=O)NCC1CCCCC1` (stereo not shown) [Compound 26], the IC50 is over 10000 nM.

In the case of `Cc1ccccc1NC(=O)Nc1ccc(CC(=O)N2CCC[C@H]2C(=O)N[C@@H](CC(=O)O)C(=O)O)cc1` [Compound 342], the IC50 was over 10000 nM.

`Cc1c(C(=O)N[C@@H](CC(C)C)C(=O)N[C@@H](CC(=O)O)C(=O)N[C@H](C(=O)O)C(C)C)cnn1-c1ccccc1` [Compound 369]: the IC50 was over 10000 nM.

In the case of `Cc1ccccc1NC(=O)Nc1ccc(CC(=O)N[C@@H](CC(C)C)C(=O)N[C@@H](CCC(=O)O)C(=O)N[C@@H](CC(=O)O)C(N)=O)cc1` [Compound 310], the IC50 is under 50 nM.

As for `Cc1ccccc1NC(=O)Nc1ccc(CC(=O)N[C@@H](CO)C(=O)N[C@@H](CC(=O)O)C(=O)N[C@H](CCC(=O)O)C(N)=O)cc1` [Compound 283], the IC50 was under 50 nM.

In the case of `Cc1ccccc1NC(=O)Nc1ccc(CC(=O)N2CCC[C@H]2C(=O)N[C@@H](CC(=O)O)C(=O)N[C@H](C(N)=O)C(C)C)cc1` [Compound 243], the IC50 is under 50 nM.

As for `CSCC[C@H](NC(=O)[C@H](CC(=O)O)NC(=O)[C@@H](NC(=O)Cc1ccc(NC(=O)Nc2ccccc2C)cc1)[C@@H](C)O)C(N)=O` [Compound 258], the IC50 is under 50 nM.

For `Cc1ccccc1NC(=O)Nc1ccc(CC(=O)N[C@@H](CO)C(=O)N[C@@H](CC(=O)O)C(=O)N[C@@H](CC(=O)O)C(N)=O)cc1` [Compound 275], the IC50 is under 50 nM.

As to `CC(C)C[C@H](NC(=O)c1ccc(-c2ccccn2)s1)C(=O)N[C@@H](CC(=O)O)C(=O)N[C@H](C(=O)O)C(C)C` [Compound 407], the IC50 was over 10000 nM.

Take `COC(=O)[C@@H](NC(=O)[C@H](CC(=O)O)NC(=O)[C@H](CC(C)C)NC(=O)Cc1ccccc1)[C@@H](C)OCc1ccccc1` [Compound 192] (PhAc-Leu-Asp-Thr(Bn)-OMe): the IC50 fell in the range of 50 to 10000 nM.

Consider `CC(=O)N[C@@H](Cc1ccccc1)C(=O)N[C@@H](CC(C)C)C(=O)N[C@@H](CC(=O)O)C(=O)N[C@H](C(=O)O)C(C)C` [Compound 152] (Ac-FLDV-OH), for which the IC50 is over 10000 nM.

As to `Cc1ccccc1NC(=O)Nc1ccc(CC(=O)N2CCC[C@H]2C(=O)N[C@@H](CC(=O)O)C(=O)N[C@H](CCC(=O)O)C(N)=O)cc1` [Compound 249], the IC50 was under 50 nM.

`Cc1ccccc1NC(=O)Nc1ccc(CC(=O)N2CCCC2C(=O)NC(CC(=O)O)C(=O)NC(CO)C(N)=O)cc1` (stereo not shown) [Compound 251]: the IC50 is under 50 nM.

On to `Cc1ccccc1NC(=O)Nc1ccc(CC(=O)N[C@@H](CO)C(=O)N[C@@H](CC(=O)O)C(=O)N[C@H](C(N)=O)[C@@H](C)O)cc1` [Compound 280], for which the IC50 was under 50 nM.

Take `CCCCCCNC(=O)C(NC(=O)C(CC(=O)O)NC(=O)C(CC(C)C)NC(=O)C1CCc2ccccc2N1)C(C)C` (stereo not shown) [Compound 114]: the IC50 was over 10000 nM.

Take `Cc1ccccc1NC(=O)Nc1ccc(CC(=O)N[C@@H](CO)C(=O)N[C@@H](CC(=O)O)C(=O)N[C@H](C(N)=O)C(C)C)cc1` [Compound 277]: the IC50 was under 50 nM.

`CC(C)C[C@H](NC(=O)c1csc(-c2ccncc2)n1)C(=O)N[C@@H](CC(=O)O)C(=O)N[C@H](C(=O)O)C(C)C` [Compound 376]: the IC50 is over 10000 nM.

On to `Cc1ccccc1NC(=O)Nc1ccc(CC(=O)N[C@H](CC(C)C)C(=O)N[C@@H](CC(=O)O)C(=O)N[C@H](CC(N)=O)C(N)=O)cc1` [Compound 293], for which the half-maximal inhibitory concentration (IC50) is under 50 nM.

For the molecule `CCCCC(NC(=O)C(NC(=O)C(CC(=O)O)NC(=O)C(CC(C)C)NC(=O)Cc1ccccc1)C(C)C)C(=O)O` (stereo not shown) [Compound 43] (PhAc-LDV[Nle]-OH; configuration not given here), the IC50 was in the range of 50 to 10000 nM.

Turning to `CC(C)CC(NC(=O)C1Cc2ccccc2CN1)C(=O)NC(CC(=O)O)C(=O)NC(C(=O)N1CCCC1C(=O)O)C(C)C` (stereo not shown) [Compound 33] (H-[Tic]LDVP-OH; configuration not given here), the IC50 is over 10000 nM.
